# Laboratory results taken from article PMC12713470, “Design and Synthesis of Novel Chalcone Derivatives Targeting Bladder and Liver Cancer: Cytotoxicity Evaluation and Preliminary Mechanistic Studies” (ACS Omega, 2025).
# Legend:
# [1] = system: T24: human urinary bladder carcinoma cells; assay: MTT cytotoxicity assay on T24 cells; type: cell-based
# Experimental: Cytotoxicity was determined using the MTT colorimetric assay, and half-maximal inhibitory concentrations (IC50, μM) were obtained for all cell lines (Table ). The selectivity index (SI) was calculated as the ratio of IC50 MRC-5/IC50 cancer cell line. Doxorubicin was employed as a positive control due to its broad-spectrum clinical use, either alone or in combination, against hepatocellular, ovarian, cervical, and bladder cancers. −
# In vitro biological assays were performed by using five human cell lines for cytotoxicity evaluation. HepG2 cells (ATCC HB-8065), derived from a human hepatocellular carcinoma of the liver (person), were cultured in Dulbecco’s modified Eagle medium (DMEM) supplemented with 5% fetal bovine serum (FBS), penicillin/streptomycin (100 IU/mL), and amphotericin B (5 μg/mL), in a humidified incubator with 5% CO2 at 37 °C. These cells were plated at a concentration of 2.0 × 10^4 cells/well in 96-well microplates. MRC-5 cells (ATCC CCL-171), derived from human lung fibroblasts of a […] fetus, were cultured under the same conditions and plated at 1.0 × 10^4 cells/well. T24 cells (ATCC HTB-4), established from a transitional cell carcinoma of the bladder (person), were also cultured under identical conditions and plated at a density of 1.0 × 10^4 cells/well. TOV-21G cells (ATCC CRL-11730), derived from a primary malignant ovarian adenocarcinoma (person), were maintained in DMEM with the same supplementation and environmental conditions and plated at 5.0 × 10^4 cells/well. […]
# HeLa, HepG2, MRC-5, T24, and TOV-21G cells were suspended in a culture medium supplemented with 5% fetal bovine serum (FBS) and seeded into 96-well microplates. The plates were incubated under a humidified atmosphere containing 5% CO2 at 37 °C for 24 h, allowing for adherence and monolayer formation. , Eight serial dilutions of the test samples, previously solubilized in dimethyl sulfoxide (DMSO), were prepared in DMEM supplemented with 1% FBS, covering a concentration range from […], and the results were converted to […]. The volume of DMSO in each well was limited to a final concentration not exceeding 2%. Following monolayer formation, the culture medium was aspirated and replaced with 100 μL of the diluted test samples and 100 μL of DMEM containing 1% FBS. The plates were then incubated under the same atmospheric and temperature conditions.
# Two hours prior to end point reading, 20 μL of MTT [3-(4,5-dimethylthiazol-2-yl)-2,5-diphenyltetrazolium bromide] solution (1.0 mg/mL in sterile phosphate-buffered saline, Sigma-Aldrich) was added to each well. The incubation period following sample addition varied according to the cell line: 24 h for MRC-5, 48 h for T24, and 72 h for HeLa, HepG2, and TOV-21G. After the appropriate incubation, absorbance was measured by using a VICTOR X3 microplate reader (PerkinElmer), and data were processed with WorkOut 2.5 software at a wavelength of 490 nm. Formazan formation, resulting from the MTT reduction by metabolically active cells, was used as an indirect measure of cell viability. The percentage of cytotoxicity was calculated using the equation % cytotoxicity = [(A – B)/A] × 100, where A is the optical density (OD4 9 0) of untreated control cells and B is the OD4 9 0 of treated cells.
# Cytotoxicity was expressed as the 50% cytotoxic concentration (CC5 0), representing the concentration of sample required to reduce cell viability by 50% relative to that of the untreated control.
# HepG2 cells [2] = assay: Clonogenic survival, HepG2; type: cell-based, human; conditions: 4.62 and 9.25 μM, 48 h treatment, 10 days colony formation
# Experimental: (§1) The cells were cultured in DMEM (Sigma-Aldrich, St. Louis, USA) and supplemented with 10% fetal bovine serum (Cultilab Ltda., Campinas, Brazil) and antibiotics (amphotericin). They were incubated at 37 °C in a humidified atmosphere with 5% CO2. Control cell groups, which were not exposed to the compound, were included in the experiments and were conducted in triplicate. The chalcone was dissolved in dimethyl sulfoxide (DMSO) for the assays.
# (§2) The cells were trypsinized and plated into 24-well plates at a density of 1.0 × 10^5 cells/mL. Afterward, they were treated with the chalcone at concentrations of 2.15, 4.62, 9.25, and 18.50 μM for 48 h. Following treatment, the cells were washed with Hanks’ solution and trypsinized again, and approximately 1000 cells were reseeded into 12-well plates. These cells were incubated for 10 days in a CO2 incubator to allow colony formation. After the incubation period, the culture medium was removed, and the cells were washed with Hanks’ solution. Fixation was performed using 4% formaldehyde for 20 min, followed by […] in 100% methanol for 20 min. The cells were then stained with a 0.5% crystal violet solution prepared in 25% methanol. […] Absorbance was measured at 570 nm using a spectrophotometer, and the results were expressed as the percentage of colonies formed relative to the untreated control group.
# T24 cells [3] = assay: Clonogenic survival, T24; type: cell-based, human; conditions: 18.50 μM (maximum concentration tested), 48 h treatment, 10 days colony formation
# Experimental: as §1, §2
# HepG2 cells [4] = assay: Cell migration (wound), HepG2; type: cell-based, human; conditions: 4.62 and 9.25 μM, 48 h
# Experimental: as §1
# Cells were seeded in 24-well plates at a density of 1.0 × 10^5 cells per well and incubated for 24 h to allow attachment. After this incubation, a sterile 200 μL pipet tip was used to scrape the cell monolayer, creating a wound. The initial wound area was photographed using an inverted microscope equipped with a camera. Following this, the cells were washed with Hanks’ solution and treated with the glycosylated chalcone at concentrations of 2.15, 4.62, 9.25, and 18.50 μM for 48 h. At the end of the treatment period, the cells were photographed again, and migration into the wound area was assessed. The percentage of cell migration was quantified using ImageJ and GraphPad Prism software.
# HepG2 cells [5] = assay: Cell cycle progression (propidium iodide flow cytometry), HepG2; type: cell-based, human
# Experimental: (§3) Cells were seeded in 12-well plates at a density of 1.0 × 10^5 cells per well and incubated for 24 h to allow adhesion. Following this initial incubation, the cells were treated with the chalcone at concentrations of 0.92, 2.15, 4.62, and 9.25 μM for an additional 48 h. After the treatment, the cells were washed, trypsinized, and collected along with the culture supernatant into Falcon tubes. The samples were then centrifuged at 1000 rpm for 10 min. After centrifugation, the supernatant was discarded, and the cell pellets were resuspended in 200 μL of propidium iodide staining solution before being transferred to cytometry tubes. These tubes were incubated on ice, in the dark, for 30 min. Flow cytometric analysis was performed on 20,000 events using a BD FACScalibur flow cytometer (BD Biosciences, Franklin Lakes, NJ, USA), and the data were analyzed using FlowJo software.
# T24 cells [6] = assay: Cell cycle progression (propidium iodide flow cytometry), T24; type: cell-based, human; conditions: after treatment, 48 h
# Experimental: as §3
# [7] = all concentrations tested (0.92–4.62 μM)
compound,measurement,setting,value
"CCCc1cc(/C=C/C(=O)c2ccc(C)cc2)c(OC)c(OC)c1 [compound 3, (E)-3-(2,3-Dimethoxy-5-propylphenyl)-1-(p-tolyl)-prop-2-en-1-one]",IC50,"[1]; Homo sapiens, T-24, MTT, 48 h incubation, n = 3, NA: noncytotoxic at the concentrations tested",5 ± 1.6 µM
same,SI (T24),[1]; IC50 MRC-5/IC50 T24,11.1
same,potency against T24 relative to hit 1,"[1]; ratio of IC50 values, 1 vs 3",more than 32 times
same,"colony formation, HepG2",HepG2 cells [2],reduction in colony formation
same,"colony formation, T24",T24 cells [3],significant effect was observed
same,"cell migration, HepG2",HepG2 cells [4],reduction of cell migration
same,"fraction of cells in sub-G1, HepG2",HepG2 cells [5]; 0.92–4.62 μM,remained stable
same,"G2/M phase, HepG2",HepG2 cells [5]; [7],corresponding reduction
same,"population of cells in the G0/G1 phase, HepG2",HepG2 cells [5]; [7],significant increase
same,"cell cycle distribution, T24",T24 cells [6],no difference was observed after treatment
